Assay results taken from article PMC12993615 (The journal of pain, 2024).

Columns and labels:
FABP7 = FABP7 (Homo sapiens, UniProt O15540); assay: Fluorescence displacement binding assay (ANS probe)
Description: Purified FABPs were incubated with 11-(dansylamino)undecanoic acid (DAUDA) (FABP3, FABP5) or 8-anilino-1-naphthalenesulfonic acid (ANS) (FABP7) in the presence or absence of FABP inhibitors (.01–200 μM) in the binding assay buffer. FABP4 binding was assessed using a commercially available kit (Cayman Chemical, Ann Arbor). In all cases, arachidonic acid (10 μM) was included to account for maximal probe displacement. Loss of fluorescence intensity was monitored with an F5 Filtermax Multi-Mode Microplate Reader (Molecular Devices, Sunnyvale) using the following excitation and emission wavelengths (DAUDA: ex./em.= 360/535 nm; ANS: ex./em. = 360/465 nm). Following background subtraction, the fluorescence intensity values were normalised and analyzed via a one-site binding model using the GraphPadPrism (version 9.2). Ki values were determined using the following equation: Ki= IC50/(1 + ([Probe]/Kd).

[1] = biological target: T1, CCK1 [cholecystokinin A receptor] (Homo sapiens, UniProt P32238); assay: Secondary pharmacology panel (87 targets); assay type: binding; conditions: test concentration 30 µM
T1 sequence (P32238 1-428): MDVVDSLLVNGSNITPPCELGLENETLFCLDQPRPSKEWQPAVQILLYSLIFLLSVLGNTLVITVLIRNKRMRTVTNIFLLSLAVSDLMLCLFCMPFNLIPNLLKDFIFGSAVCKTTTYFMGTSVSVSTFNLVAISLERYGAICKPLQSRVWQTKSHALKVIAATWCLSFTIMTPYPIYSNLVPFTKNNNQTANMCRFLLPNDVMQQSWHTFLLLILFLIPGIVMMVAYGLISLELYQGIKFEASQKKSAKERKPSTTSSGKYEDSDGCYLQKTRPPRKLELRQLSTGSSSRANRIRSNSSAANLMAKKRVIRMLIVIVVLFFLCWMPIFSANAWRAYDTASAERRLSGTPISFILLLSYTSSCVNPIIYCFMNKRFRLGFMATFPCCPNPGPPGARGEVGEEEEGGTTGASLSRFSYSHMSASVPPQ
Text: (§1) Findings were considered significant if ≥50% inhibition of ligand binding or ≥50% stimulation/inhibition were shown in biochemical assays. Those receptors with values ≥50% were further evaluated for binding and functional half-maximal inhibitory concentrations (IC50).

[2] = biological target: T2, CCK2 [cholecystokinin B receptor] (Homo sapiens, UniProt P32239); assay: Secondary pharmacology panel (87 targets); assay type: binding; conditions: test concentration 30 µM
T2 sequence (P32239 1-447): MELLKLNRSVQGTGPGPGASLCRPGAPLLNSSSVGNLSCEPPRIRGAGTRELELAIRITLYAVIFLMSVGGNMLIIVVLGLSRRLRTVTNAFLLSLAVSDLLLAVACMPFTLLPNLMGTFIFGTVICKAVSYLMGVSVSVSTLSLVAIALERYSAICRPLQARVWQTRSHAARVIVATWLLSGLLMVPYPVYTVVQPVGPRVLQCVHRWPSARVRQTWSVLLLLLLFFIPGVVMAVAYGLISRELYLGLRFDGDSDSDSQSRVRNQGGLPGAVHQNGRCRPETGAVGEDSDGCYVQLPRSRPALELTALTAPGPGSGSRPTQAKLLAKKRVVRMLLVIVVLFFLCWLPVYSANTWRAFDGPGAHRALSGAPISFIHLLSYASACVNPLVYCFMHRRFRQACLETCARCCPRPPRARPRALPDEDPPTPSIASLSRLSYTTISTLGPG
Text: as §1

[3] = tested on: CCK1, CCK2, δ (DOP), cathepsin G; assay: Subsequent functional assessment of secondary pharmacology hits; assay type: biochemical
Text: as §1

[4] = Terminal plasma and brain concentrations, OIPN treatment study; assay type: in vivo; conditions: after 7 days dosing 25 mg/kg BID
Text: Body weight was monitored throughout the study, and terminal plasma and whole brain samples were taken for bioanalysis.

[5] = tested on: dorsal root ganglion lipids; assay: Lipidomic analysis of terminal tissues, OIPN prevention study; assay type: in vivo, male Sprague Dawley rats; conditions: 25 mg/kg BID, versus vehicle, P = .03
Description: Pain measurements were made on Days 5/6 (when neuropathy has normally developed) and at the end of the study. […] Terminal plasma samples were taken for bioanalysis and proteomics (Somalogic). Brain regions involved in pain processing, that is, prefrontal cortex (PFC), periaqueductal grey (PAG), whole spinal cords (SC), and L4-L6 dorsal root ganglia, were collected for lipidomic and genomic (Genewiz, China) analyses. Lipid extraction from tissues was performed as previously described.[40] Samples were flash frozen in liquid nitrogen, weighed and transferred to a centrifuge tube with HPLC-grade methanol (Thermo Fisher Scientific, Fair Lawn, NJ). Tubes were spiked with 500 picomoles d8AEA (Cayman Chemical, Ann Arbor, MI). Samples were left on ice for 2 hours, homogenised and centrifuged at 19,000 g for 20 minutes at 20°C. […] Elution samples were then analysed by HPLC MS/MS as previously described.[40] 20 μL samples were run on an Agilent XDB-C18 reversed-phase analytical column and analysed using an Applied Biosystems API 3,000 triple quadrupole mass spectrometer with electrospray ionisation (Foster City, CA). […] Concentrations in mols/gram were adjusted according to extraction efficiency, as determined by d8AEA recovery. For each individual lipid species, samples were unblinded, fold-change compared to the vehicle was calculated and significance calculated by t-test (P < .05 and P < .1) in R.

[6] = tested on: PAG, DRG and PFC transcriptomes; assay: Transcriptomic analysis (RNA-seq) of terminal tissues, OIPN prevention study; assay type: in vivo, male Sprague Dawley rats
Text: Pain measurements were made on Days 5/6 (when neuropathy has normally developed) and at the end of the study. […] Terminal plasma samples were taken for bioanalysis and proteomics (Somalogic). Brain regions involved in pain processing, that is, prefrontal cortex (PFC), periaqueductal grey (PAG), whole spinal cords (SC), and L4-L6 dorsal root ganglia, were collected for lipidomic and genomic (Genewiz, China) analyses. Sequencing (Illumnia NovoSeq) was done at Genewiz (Shanghai, China). Sequence reads were trimmed using Trimmomatic (v.0.36). Reads were then aligned to the R. norvegicus Rnor6.0 reference genome (https://www.ncbi.nlm.nih.gov/assembly/GCF_000001895.5/) using the STAR aligner (v.2.5.2b) and unique gene hit counts were calculated using featureCounts from the Subread package (v.1.5.2). Differentially expressed genes were determined using limma 3.46.0. […] Visualisation was done using the EnhancedVolcano (1.7.10) package in R. Gene set enrichment analysis was carried out using the gprofiler2 package in R.

[7] = tested on: paclitaxel-induced peripheral neuropathy; conditions: male and female rats, similar efficacy; cited from earlier work
[8] = tested on: painful diabetic neuropathy; conditions: cited from earlier work

Chain of FABP7 (O15540 whole entry, species assumed): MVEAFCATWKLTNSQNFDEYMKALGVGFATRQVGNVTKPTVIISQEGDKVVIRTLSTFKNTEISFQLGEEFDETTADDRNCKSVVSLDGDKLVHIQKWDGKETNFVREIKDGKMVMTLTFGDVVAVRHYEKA

SMILES: COc1ccccc1[C@@H]1[C@H](C(=O)O)[C@@H](c2ccccc2OC)[C@H]1C(=O)OC1Cc2ccccc2C1 [ART26.12, (+)–3-Indan-2-yloxycarbonyl-2,4-bis(2-methoxyphenyl)cyclobutanecarboxylic acid]
- Ki (FABP7): 19 ± 1.81 µM
- binding to CCK1 in secondary pharmacology screening [1]: greater than 50%
- binding to CCK2 in secondary pharmacology screening [2]: greater than 50%
- functional assessment at the 4 off-targets [3]: not physiologically relevant
- average total plasma concentration [4]: 6.5 ± .6 µM
- total brain concentration [4]: .15 ± .02 µM
- increase of N-docosahexaenoyl proline in DRG [5]: 9 fold
- transcriptomic changes in PFC [6]: No significant changes
- transcriptomic changes in DRG ([6]; P < .05, FC > 1.5): only glycine decarboxylase being significantly upregulated
- number of significantly different genes in PAG ([6]; P < .05, log2FC > .58): 20 genes
- effect on paclitaxel-induced peripheral neuropathy [7]: prevents paclitaxel-induced peripheral neuropathy
- effect on established painful diabetic neuropathy [8]: treats established painful diabetic neuropathy
